Experimental data from article PMC7994712 (Nature Communications, 2021).
Read-outs that look alike come from different tables or passages of the source. Blank lines part the entries; values can stand above or below the compound they belong to. Where a SMILES comes first, the peptide text is derived from it. Bridges are numbered along the chain shown (N, C = ends).

Key:
SSTR2 [1] = molecular target: T1, SSTR2 (Homo sapiens, UniProt P30874); design: method as in earlier work; details: literature values marked *; ref 1 (supplementary references); cited from earlier work
T1 construct: host or cells: CHO-K1
Description: (§1) The peptide backbone is shown in gold and the N- and C-terminus residues, as well as the disulfide bond are labelled. Representative aromatic clusters. All side chains are shown to facilitate structural analysis. Side chains participating in the interactions are specifically labelled. c Schematic representation of Cortistatin-14 sequence. […] 1-2. […] 3-1. […] 3-1. […] 3-1.

SSTR5 [2] = molecular target: T2, SSTR5 (Homo sapiens, UniProt P35346); design: method as in earlier work; details: literature values marked *; ref 1 (supplementary references); cited from earlier work
T2 construct: host or cells: CHO-K1
Description: as §1

SSTR3 [3] = molecular target: T3, SSTR3 (Homo sapiens, UniProt P32745); design: method as in earlier work; details: literature values marked *; ref 1 (supplementary references); cited from earlier work
T3 construct: host or cells: CHO-K1
Description: as §1

SSTR4 = molecular target: T4, SSTR4 (Homo sapiens, UniProt P31391); design: method as in earlier work; details: literature values marked *; ref 1 (supplementary references); cited from earlier work
T4 construct: host or cells: CHO-K1
Description: as §1

in vitro = format: cell-based; details: mouse, peritoneal macrophages stimulated with LPS, Viability of Macrophages (%, vs. Initiation of culture)
Experimental: Mouse peritoneal macrophages were cultured in medium (unstimulated) or stimulated with LPS (1 μg/ml) in the absence or presence of Analogue 5 (100 nM). Mouse spleen cells were cultured in medium alone (unstimulated) or stimulated with anti -CD3 a ntib odies (2 μg/ml) in the absence or presence of analogue 5 (100 nM). After 24 hours (macrophages) or 48 hours (spleen cells) of culture, cell viability and apoptosis were determined. The percentage of cell viability relative to the initiation of cell c ult ure was determined using AlamarBlue assay (Thermo Fisher Scientific). The percentage of apoptotic cells was determined by flow cytometric analysis of Annexin Vpositive 7-amino-actinomycin Dnegative cell population (R&D Systems). Data are the mean ± SEM of 5 independe nt cultures performed in duplicates. […]
Treatments were administered in a curative regime as described in Figure 4 and sera were collected 10 days after TNBS infusion. n=8 mice/group. […] Statistical differences between groups were calculated usi ng unpa ired two -tailed Student’s t-test. ****p<0.0001 versus TNBS+saline […]
Total RNA was isolated from colon sections obtained at day 10 after TNBS injection following the manufacturer’s protocol (Tripure, Roche). […] SYBER green quantitative PCR (SensiFast Sybr No-Rox mix, Bioline) was performed as described in the […]

[4] = In vitro stability of peptides in human plasma (half-life in serum); details: serum half-life of analogue 5 vs native CST
SSTR2 [5] = molecular target: T1, SSTR2; experiment: Radio-ligand binding assay, SSTR2
Experimental: (§2) Graphical and tabular representation of the percentage inhibition of specific binding, as IC50 (nM) binding values for the analogues against the five SSTR1-SSTR5 is represented in Supplementary Fig. 1b and Supplementary Table 1. […] IC50 values were determined by a non-linear, least squares regression analysis using Prism 9 (GraphPad Software, USA), using the Dose-response inhibition (three-parameters) model. […]
(§3) (SSTR1-SSTR5), using a Radio-ligand Binding Assay (Supplementary Figure 1b). Cells were incubated in HEPES buffer pH 7.4 with the new analogues of Cortistatin at 10 different concentrations in a range […]
(§4) specifically bound (performed at Eurofins Panlabs, Inc.). The radioactivity obtained in the absence of SST14 is considered as total binding and that obtained in the presence of 1 µM of SST14 is considered as nonspecific binding. Specific binding was considered as the difference between total and nonspecific.
(§5) Biochemical assay results are presented as the percent inhibition of specific bindin g (% inhib ition) as a […]
(§6) part of each binding assay with the five (SSTR1 -SS T R5 ) . I C50 values were determined by a non-linear, least squares regression analysis using Prism 9 (GraphPad Software, USA), using the Dose -response inhibit ion (t hree-parameters) model.

SSTR5 [6] = molecular target: T2, SSTR5; experiment: Radio-ligand binding assay, SSTR5
Experimental: as §2, §3, §4, §5, §6

SSTR3 [7] = molecular target: T3, SSTR3; experiment: Radio-ligand binding assay, SSTR3
Experimental: as §2, §3, §4, §5, §6

SSTR1 = molecular target: T5, SSTR1 (Homo sapiens, UniProt P30872); experiment: Radio-ligand binding assay, SSTR1
T5 construct: host or cells: CHO-K1
Experimental: as §2, §3, §4, §5, §6

[8] = test system: LPS-activated mouse Raw 264 macrophages; experiment: Inflammatory response of LPS-activated RAW 264 macrophages; format: cell-based; details: 100 nM (Supplementary Fig. 2c)
Experimental: Inflammatory response was assayed in vitro on the mouse macrophagic cell line RAW 264 macrophages and mouse primary peritoneal macrophages. RAW 264 cells (ATTC, TIB-71) were grown at 5 × 10^5 cells/mL in complete DMEM medium (DMEM supplemented with 100 U/mL penicillin/streptomycin, 2 mM L-glutamine, 50 μM 2-mercaptoethanol and 10% heat-inactivated fetal calf serum) until reaching a confluence of 80% and then incubated in the absence (used as baseline reference) or presence of LPS (1 μg/mL, from E. coli serotype 055: B5, Sigma). Cortistatin (mouse/rat CST-14, Bachem) and its synthesised analogues were added at a concentration of 100 nM at the beginning of culture. After 24 h of culture, supernatants were harvested. Levels of the inflammatory cytokines TNFα and IL6 were determined by a specific sandwich ELISA by using capture/biotinylated detection monoclonal antibodies from BD Pharmingen (for TNFα: capture antibody clone G281-2626, cat # 551225; biotin antibody clone MP6-XT3, cat # 554415; for IL6: capture antibody clone MP5-20F3, cat # 554398; biotin MP5-32C1, cat # 554402) according to the manufacturer’s recommendations. Nitric oxide content in culture supernatants was determined by quantifying nitrite levels using the Griess assay.

[9] = test system: anti-CD3-activated mouse spleen cells; experiment: Proliferation and Th1-type cytokines of anti-CD3-activated spleen cells; format: cell-based; details: 100 nM (Supplementary Fig. 2d)
Experimental: Spleen cells were isolated from C57Bl/6J mice (male, 8-weeks-old, Charles River) by mechanical cell dissociation, filtration using a nylon filter and red cell lysing. The spleen cells were incubated in complete DMEM medium at a density of 10^6 cells/mL for 2 h. Nonadherent cells (consisting in 80% of T cells) were cultured in complete DMEM medium and stimulated with anti-mouse CD3e antibody (2 μg/mL, clone 145-2C11, BD Pharmingen, cat #: 553058) in the presence of different Cortistatin analogues (100 nM). After 48 h, culture supernatants were collected and the levels of cytokines (IFNγ and IL2) were determined by a specific sandwich ELISA by using capture/biotinylated detection monoclonal antibodies from BD Pharmingen (for IFNγ: capture antibody clone XMG1.2, cat # 554408; biotin antibody clone R4-6A2, cat # 551506; for IL2: capture antibody clone S4B6, cat # 554375; biotin antibody clone JES6-5H4, cat # 554426) according to the manufacturer’s recommendations. To determine the effect of different analogues of Cortistatin in proliferation, the cells were cultured for 72 h, 0.5 μCi (0.0185 MBq)/well of [^3H]-thymidine was added for the last 8 h of culture, harvested the membranes and [^3H]-thymidine incorporated was quantified by scintillation counting.

[10] = test system: serum of mice with TNBS-induced acute colitis; experiment: Serum cytokines in TNBS-induced acute colitis; format: in vivo, mouse
Description: In both TNBS-induced acute and chronic colitis, animals were daily monitored for the appearance of diarrhea, body weight loss and survival. At different time points, colitis signs were scored in base of stool consistency and rectal bleeding by two blinded observers using the following scale: 0 = normal stool appearance, 1 = slight decrease in stool consistency, 2 = moderate decrease in stool consistency, 3 = moderate decrease in stool consistency and presence of blood in stools, 4 = severe watery diarrhea and moderate/severe bleeding in stools. […] After macroscopic examination, various colonic segments were immediately frozen in liquid nitrogen for protein extraction and cytokine determination or for histopathological analysis as described below. In some animals, MLNs were isolated 10 days after TNBS injection and assayed for proliferation, cytokine production and flow cytometric analysis as described below. Moreover, sera were collected by cardiac puncture at day 10 after TNBS injection and the levels of cytokines and anti-TNBS IgG were determined by specific ELISAs as described below. […]
Supplementary Table 3. Serum cytokines in TNBS-in du ced acu t e col i ti s.
Treatments were administered in a curative regime as described in Figure 4 and sera were collected 10
days after TNBS infusion. n=8 mice/group. Data are mean ± SEM. […]

[11] = test system: colonic mucosa of mice with TNBS-induced acute colitis; experiment: Cytokines in colonic mucosa, TNBS-induced acute colitis; format: in vivo, mouse; details: Figure 5c, mean of 8 mice
Experimental: Control mice received 50% ethanol alone.
Protein extracts were isolated by homogenisation of colonic segments (50 mg tissue/mL) in 50 mM Tris-HCl, pH 7.4, with 0.5 mM DTT, and 10 μg/mL of a cocktail of proteinase inhibitors (all from Sigma-Aldrich). Samples were centrifuged at 30,000×g for 20 min and stored at –80 °C until cytokine determination.

[12] = TNBS acute colitis, curative regime, sera 10 days after TNBS, mean ± SEM, n=8
[13] = acute colitis induced by TNBS, serum, mean of 8 mice

T1 sequence (P30874 whole entry): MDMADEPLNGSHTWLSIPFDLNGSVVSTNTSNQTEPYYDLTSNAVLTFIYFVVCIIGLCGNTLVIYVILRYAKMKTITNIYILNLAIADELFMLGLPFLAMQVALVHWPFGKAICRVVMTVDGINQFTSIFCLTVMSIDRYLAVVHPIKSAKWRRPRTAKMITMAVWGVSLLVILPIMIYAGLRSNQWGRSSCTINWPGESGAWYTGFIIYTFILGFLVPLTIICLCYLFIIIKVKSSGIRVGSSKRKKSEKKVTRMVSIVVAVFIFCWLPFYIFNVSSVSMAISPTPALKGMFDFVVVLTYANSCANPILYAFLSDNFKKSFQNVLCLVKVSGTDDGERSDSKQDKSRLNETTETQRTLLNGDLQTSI
T2 sequence (P35346 whole entry): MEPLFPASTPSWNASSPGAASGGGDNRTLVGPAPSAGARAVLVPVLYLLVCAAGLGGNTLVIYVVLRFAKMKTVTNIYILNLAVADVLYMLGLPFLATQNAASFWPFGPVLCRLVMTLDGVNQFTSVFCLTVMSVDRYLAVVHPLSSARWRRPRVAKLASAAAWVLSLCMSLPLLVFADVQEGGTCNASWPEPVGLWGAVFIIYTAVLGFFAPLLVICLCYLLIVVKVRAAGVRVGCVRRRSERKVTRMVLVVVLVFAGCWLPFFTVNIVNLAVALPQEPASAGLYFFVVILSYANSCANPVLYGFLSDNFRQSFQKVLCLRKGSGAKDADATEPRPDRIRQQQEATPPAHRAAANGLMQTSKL
T3 sequence (P32745 whole entry): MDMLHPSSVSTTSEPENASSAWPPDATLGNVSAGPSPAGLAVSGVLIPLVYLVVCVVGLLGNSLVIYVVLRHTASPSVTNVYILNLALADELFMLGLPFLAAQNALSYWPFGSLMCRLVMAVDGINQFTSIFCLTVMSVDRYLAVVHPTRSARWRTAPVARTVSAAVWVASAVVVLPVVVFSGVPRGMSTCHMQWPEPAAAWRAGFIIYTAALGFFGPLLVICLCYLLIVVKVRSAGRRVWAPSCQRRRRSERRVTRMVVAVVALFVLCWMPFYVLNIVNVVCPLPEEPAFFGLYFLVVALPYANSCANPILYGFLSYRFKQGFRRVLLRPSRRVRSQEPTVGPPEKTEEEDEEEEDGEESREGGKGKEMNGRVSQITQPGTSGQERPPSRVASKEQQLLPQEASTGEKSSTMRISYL
T5 sequence (P30872 whole entry): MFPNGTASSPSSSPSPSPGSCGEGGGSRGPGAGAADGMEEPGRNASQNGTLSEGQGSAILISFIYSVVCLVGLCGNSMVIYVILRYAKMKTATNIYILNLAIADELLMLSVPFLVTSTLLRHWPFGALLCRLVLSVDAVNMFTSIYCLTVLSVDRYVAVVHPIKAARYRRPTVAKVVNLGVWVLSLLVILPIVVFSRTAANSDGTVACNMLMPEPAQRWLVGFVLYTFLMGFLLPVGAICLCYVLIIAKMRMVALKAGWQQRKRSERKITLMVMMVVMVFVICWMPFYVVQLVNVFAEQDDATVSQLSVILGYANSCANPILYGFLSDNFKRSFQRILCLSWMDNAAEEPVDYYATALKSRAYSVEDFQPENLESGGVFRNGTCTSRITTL
T4 sequence (P31391 whole entry): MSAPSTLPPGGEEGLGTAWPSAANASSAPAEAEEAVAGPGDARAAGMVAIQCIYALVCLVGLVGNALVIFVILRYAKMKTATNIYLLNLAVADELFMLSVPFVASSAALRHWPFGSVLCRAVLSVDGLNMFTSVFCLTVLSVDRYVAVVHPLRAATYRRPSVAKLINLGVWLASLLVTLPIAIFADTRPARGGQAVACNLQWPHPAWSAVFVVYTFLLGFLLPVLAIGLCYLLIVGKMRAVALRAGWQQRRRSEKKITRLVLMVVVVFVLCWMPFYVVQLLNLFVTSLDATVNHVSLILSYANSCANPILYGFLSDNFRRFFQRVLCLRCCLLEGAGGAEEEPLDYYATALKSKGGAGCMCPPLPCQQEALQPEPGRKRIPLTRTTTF

SMILES: C[C@@H](O)[C@@H]1NC(=O)[C@H](CCCCN)NC(=O)[C@H](Cc2c[nH]c3ccccc23)NC(=O)[C@H](Cc2ccccc2)NC(=O)[C@H](Cc2ccccc2)NC(=O)[C@H](CC(N)=O)NC(=O)[C@H](CCCCN)NC(=O)[C@@H](NC(=O)[C@@H]2CCCN2)CSSC[C@@H](C(=O)N[C@@H](CCCCN)C(=O)O)NC(=O)[C@H](CO)NC(=O)[C@H](CO)NC(=O)[C@H](Cc2ccccc2)NC1=O [CST] (H-PCKNFFWKTFSSCK-OH; disulfide 2-13)
- IC50 (SSTR2 [1]): 0.09 nM
- IC50 (SSTR5 [2]): 0.3 nM
- IC50 (SSTR3 [3]): 0.3 nM
- IC50 (SSTR4): 0.2 nM

SMILES: CCCCCCCC(=O)N1CCC[C@H]1C(=O)N[C@H]1CSSC[C@@H](C(=O)N[C@@H](CCCCN)C(=O)O)NC(=O)[C@H](CO)NC(=O)[C@H]([C@@H](C)O)NC(=O)[C@H](Cc2ccccc2)NC(=O)[C@H]([C@@H](C)O)NC(=O)[C@H](CCCCN)NC(=O)[C@@H](Cc2c[nH]c3ccccc23)NC(=O)[C@H](Cc2ccccc2)NC(=O)[C@H](Cc2c(C)cc(C)cc2C)NC(=O)[C@H](CC(N)=O)NC(=O)[C@H](CCCCN)NC1=O [A5]
- viability at 24 h, 0.1 µM (in vitro): 93.2%
- increase in stability with respect to the native neuropeptide [4]: 10 fold
- IC50 (SSTR2 [5]): 35 nM
- IC50 (SSTR5 [6]): 1.12 nM
- IC50 (SSTR3 [7]): 5.1 nM
- IC50 (SSTR1): 47.3 nM

- IC50 (SSTR2 [5]): 9.8 nM
- IC50 (SSTR5 [6]): 4 nM
- IC50 (SSTR3 [7]): 1.8 nM
- IC50 (SSTR1): 14.7 nM
SMILES: Cc1cc(C)c(C[C@@H]2NC(=O)[C@H](CC(N)=O)NC(=O)[C@H](CCCCN)NC(=O)[C@@H](NC(=O)[C@@H]3CCCN3)CSSC[C@@H](C(=O)N[C@@H](CCCCN)C(=O)O)NC(=O)[C@H](CO)NC(=O)[C@H]([C@@H](C)O)NC(=O)[C@H](Cc3ccccc3)NC(=O)[C@H]([C@@H](C)O)NC(=O)[C@H](CCCCN)NC(=O)[C@@H](Cc3c[nH]c4ccccc34)NC(=O)[C@H](Cc3ccccc3)NC2=O)c(C)c1 [A4, [L-Msa5_D-Trp7_L-Thr11]-CST 14]
- effect on the inflammatory responses in activated macrophages [8]: no significant effects
- effect on the inflammatory responses in activated lymphocytes [9]: no significant effects

SMILES: Nc1ccc(O)c(C(=O)O)c1 [Mesalazine, 5-aminosalycilic acid]
- Serum IL6 [10, 12]: 773 ± 46 pg/mL
- Serum IL17 [10, 12]: 233 ± 15 pg/mL
- IL6, serum level [10, 13]: 0.77 ng/mL
- TNFa, serum level [10, 13]: 0.78 ng/mL
- IL17, serum level ([10]; acute colitis induced by TNBS, serum, mouse 1 of the group): 0.024 ng/mL
- IL17, serum level ([10]; acute colitis induced by TNBS, serum, mouse 2 of the group): 0.024 ng/mL
- IL17, serum level ([10]; acute colitis induced by TNBS, serum, mouse 3 of the group): 0.029 ng/mL
- IL17, serum level ([10]; acute colitis induced by TNBS, serum, mouse 4 of the group): 0.017 ng/mL
- IL17, serum level ([10]; acute colitis induced by TNBS, serum, mouse 5 of the group): 0.019 ng/mL
- IL17, serum level ([10]; acute colitis induced by TNBS, serum, mouse 6 of the group): 0.025 ng/mL
- IL17, serum level ([10]; acute colitis induced by TNBS, serum, mouse 7 of the group): 0.021 ng/mL
- IL17, serum level ([10]; acute colitis induced by TNBS, serum, mouse 8 of the group): 0.028 ng/mL
- IL10 (ng/g colon) [11]: 3.75 ng/g colon
